# According to patent US20150212068A1, “Cholyl-L-Lysyl-Fluorescein Assay” (Novassay SA, priority 2012, published 2015):
# Entries after “also recorded” stand apart in the source; their conditions may differ.
# Tests used:
# [1] = Effect of light exposure on CLF-spiked serum, 48 hrs at room temperature, CLF ELISA; type: physicochemical, human; conditions: for % difference (light from dark) / observed Light / observed dark: serum pool; for % difference (light from dark) / observed dark: 48 hrs at RT; for observed Light: 48 hrs at RT near light source; for observed dark: covered with aluminium foil
# Method: These conditions were used for all assays described in Phase 2a (above) and Phase 2b (below). See Appendix B and C for buffer and conjugate formulations respectively: • Add 25 μl/well of sample or standard (0-1000 ng/ml CLF in Buffer #24) to the wells of a streptavidin-coated microtitre plate (NovAssay, F2SAC). • Add 100 μl/well of fluorescein-biotin (Sigma B9431) at 20 ng/ml in Buffer #24+0.2% w/v ANS (Sigma 10417). • Add 100 μl/well of anti-fluorescein HRP (NovAssay, DV047/17-3) at 100 ng/ml in Buffer #24. • Incubate the plate for 30 minutes at room temperature. • Wash the plate 3 times with 800 μl/well Buffer #29 and tap the plate dry. • Add 100 μl/well of SureBlue Reserve TMB Substrate (KPL) and incubate the plate for 10 minutes at room temperature. • Stop the substrate reaction by adding 100 μl/well of 1M HCl and read the absorbance at 450 nm wavelength (ThermoFisher Scientific, Multiskan FC).
# For the study of the effect of light, 3 pools of serum were spiked with CLF at 31.25, 125 and 500 ng/ml. One aliquot of each pool was put near a light source (fluorescent bulb 58 watts, at a distance of 85 cm). The “dark” sample was covered with aluminium foil. The samples were at RT (˜18-22° C.). Storage time was 48 hrs.
# [2] = Stability of CLF in human plasma at room temperature and 4° C. after 30 min pre-incubation in whole blood at 37° C. (Test 2), HPLC-MS/MS; type: in vitro ADME; conditions: for CLF concentration: plasma after 30 min blood pre-incubation at 37° C., mean ± SEM (n = 2); for percentage of compound remaining (by comparing with content at To), lowest over incubation / CLF remaining: plasma after blood pre-incubation; for percentage of compound remaining (by comparing with content at To), lowest over incubation: up to 24 h; for CLF remaining: vs To
# Method: Eighty microliters (80 μl) of the working solution of CLF were added to 8 ml of human EDTA blood. The final concentration of CLF in blood was of 100 ng/ml. Then, sample was incubated at 37° C. in water bath for 30 min and plasma was prepared as described previously. Plasma was then divided into two equal fractions of 2 ml each. One fraction was incubated at room temperature and the second one was incubated at 4° C. in a cold room. Two aliquots of 200 μl were taken from both fractions just before incubation and after 30 min, 120 min and 24 h of incubation. Samples were stored at −70° C. until further analysis. […] Thus, a stock solution of IS at 100 μg/ml in acetonitrile was 50-fold diluted in acetonitrile in order to obtain a final concentration of 2 μg/ml. Then, 200 μl of this solution were added to each plasma sample in order to precipitate the proteins. Samples were vortexed/mixed and centrifuged 5 min at 20,000 g (4° C.). After centrifugation, the clear supernatant (around 250 μl) was transferred into 1.2 ml HPLC glass vials and sealed. Samples were placed into the refrigerated autosampler and 20 μl were injected into the HPLC-MS/MS system. Test samples were injected twice. […] The injected volume of sample was 20 μl and the “full loop” mode was applied. The temperature of the analytical column was kept at 30° C. CLF and its IS were separated on an Acclaim 120 C18 column (5 μm, 2.1×100 mm, Dionex) by elution with a linear gradient of acetonitrile in water as described in Table 6. An ion trap mass spectrometer equipped with an ESI interface was operated in the positive ionization mode. For each compound, the most abundant ion formed in MS was selected for MS/MS fragmentations. In order to increase the sensitivity and the specificity of the method, the MRM mode was selected. The most specific daughter ions formed in MS/MS were used for quantification.
# [3] = Storage stability of CLF in human plasma at −70° C. over 4 weeks (Test 4), HPLC-MS/MS; type: in vitro ADME; conditions: for CLF remaining / CLF concentration: (D) storage in plasma at −70° C. per title (section head prints 37° C.); for CLF remaining: vs To; for CLF concentration: 100 ng/ml, mean ± SEM (n = 2)
# Method: A working solution of CLF was prepared at 10 μg/ml by diluting the compound in methanol (100%).
# At To and 4 weeks, 72 hours and 24 hours before To, 4 μl of the working solution of CLF were added to 400 μl of human plasma. The final concentration of CLF was of 100 ng/ml. Samples were divided in 2 equal fractions of 200 μl and stored at −70° C. until further analysis.
# An internal standard (IS), 5-([4,6-Dichlorotriazin-2-yl]amino)fluorescein hydrochloride, was added to each plasma sample (calibrators, QC, zero and test samples) in order to monitor the extraction. Thus, a stock solution of IS at 100 μg/ml in acetonitrile was 50-fold diluted in acetonitrile in order to obtain a final concentration of 2 μg/ml. Then, 200 μl of this solution were added to each plasma sample in order to precipitate the proteins. Samples were vortexed/mixed and centrifuged 5 min at 20,000 g (4° C.). After centrifugation, the clear supernatant (around 250 μl) was transferred into 1.2 ml HPLC glass vials and sealed. Samples were placed into the refrigerated autosampler and 20 μl were injected into the HPLC-MS/MS system. Test samples were injected twice.
# HPLC separation was operated with a mixture of water and acetonitrile containing 0.1% of formic acid and the reversed phase mode was selected. The injected volume of sample was 20 μl and the “full loop” mode was applied. The temperature of the analytical column was kept at 30° C.
# CLF and its IS were separated on an Acclaim 120 C18 column (5 μm, 2.1×100 mm, Dionex) by elution with a linear gradient of acetonitrile in water as described in Table 6.
# An ion trap mass spectrometer equipped with an ESI interface was operated in the positive ionization mode. For each compound, the most abundant ion formed in MS was selected for MS/MS fragmentations. In order to increase the sensitivity and the specificity of the method, the MRM mode was selected. The most specific daughter ions formed in MS/MS were used for quantification.
# [4] = room temperature (25 ± 2° C.), 0.0 hours
# [5] = room temperature (25 ± 2° C.), 0.5 hours
# [6] = room temperature (25 ± 2° C.), 2.0 hours
# [7] = room temperature (25 ± 2° C.), 24.0 hours
smiles,measurement,setting,value
"CC(CCC(=O)NC(CCCCNC(=S)Nc1ccc(-c2c3ccc(=O)cc-3oc3cc(O)ccc23)c(C(=O)O)c1)C(=O)O)C1CCC2C3C(O)CC4CC(O)CCC4(C)C3CC(O)C12C [CLF, Cholyl-L-Lysyl-Fluorescein]",CLF immunoreactivity lost,"[1]; exposed to light, after 48 hrs","long period, with up to 25% of CLF"
same,% difference (light from dark),[1]; expected 31.25 ng/ml,0%
same,observed Light,[1]; expected 31.25 ng/ml,37 ng/mL
same,observed dark,[1]; expected 31.25 ng/ml,37 ng/mL
same,% difference (light from dark),[1]; expected 125 ng/ml,−25%
same,observed Light,[1]; expected 125 ng/ml,107 ng/mL
same,observed dark,[1]; expected 125 ng/ml,143 ng/mL
same,% difference (light from dark),[1]; expected 500 ng/ml,−15%
same,observed Light,[1]; expected 500 ng/ml,423 ng/mL
same,observed dark,[1]; expected 500 ng/ml,495 ng/mL
same,CLF immunoreactivity lost on exposure to light,"[1]; spiked serum, 48 hrs, room temperature, fluorescent bulb vs dark",up to 25%
same,plasmatic concentrations measured,"[2]; blood spiked with 100 ng/ml, plasma at 4° C. and room temperature, 0-24 h",147.7 to 164.9 ng/mL
same,CLF concentration,"[2]; 4° C., 0.0 hours",163.3 ± 3.6 ng/mL
same,CLF concentration,"[2]; 4° C., 0.5 hours",155.4 ± 7.0 ng/mL
same,CLF concentration,"[2]; 4° C., 2.0 hours",164.9 ± 4.2 ng/mL
same,CLF concentration,"[2]; 4° C., 24.0 hours",152.7 ± 4.2 ng/mL
same,CLF concentration,[2]; [4],163.3 ± 3.6 ng/mL
same,CLF concentration,[2]; [5],159.3 ± 0.6 ng/mL
same,CLF concentration,[2]; [6],151.1 ± 0.8 ng/mL
same,CLF concentration,[2]; [7],147.7 ± 3.7 ng/mL
same,"percentage of compound remaining (by comparing with content at To), lowest over incubation",[2]; 4° C.,≥ 93.5%
same,"percentage of compound remaining (by comparing with content at To), lowest over incubation",[2]; room temperature,at least 90.5%
same,CLF remaining,"[2]; 4° C., 0.0 hours",100.0%
same,CLF remaining,"[2]; 4° C., 0.5 hours",95.2%
same,CLF remaining,"[2]; 4° C., 2.0 hours",101.0%
same,CLF remaining,"[2]; 4° C., 24.0 hours",93.5%
same,CLF remaining,[2]; [4],100.0%
same,CLF remaining,[2]; [5],97.6%
same,CLF remaining,[2]; [6],92.5%
same,CLF remaining,[2]; [7],90.5%
same,CLF stability in plasma after pretreatment of whole blood at 37° C.,"[2]; room temperature and 4° C., up to 24 hours",stable during 24 h; also recorded: stable under these conditions
same,CLF remaining,[3]; 0.0 days,100.0%
same,CLF concentration,[3]; 0.0 days,101.2 ± 5.8 ng/mL
same,CLF concentration,[3]; 1.0 days,105.5 ± 2.5 ng/mL
same,CLF concentration,[3]; 3.0 days,104.7 ± 6.9 ng/mL
same,CLF concentration,[3]; 28.0 days,96.2 ± 1.4 ng/mL
same,CLF remaining,[3]; 1.0 days,104.3%
same,CLF remaining,[3]; 3.0 days,103.5%
same,CLF remaining,[3]; 28.0 days (4 weeks),95.0%
same,plasmatic concentrations measured,"[3]; plasma spiked with 100 ng/ml, stored at −70° C., 0-4 weeks",96.2 to 105.5 ng/mL
same,CLF stability in plasma on storage,[3]; up to 4 weeks at −70° C.,stable
same,time over which CLF stability in human plasma was confirmed,[3]; −70° C.,at least 4 weeks
